This passage reports Activity, solubility and logP results from ChEMBL document CHEMBL1153565, “Physicochemical properties and membrane interactions of anti-apoptotic derivatives 2-(4-fluorophenyl)-3-(pyridin-4-yl)imidazo[1,2-a]pyridine depending on the hydroxyalkylamino side chain length and conformation: an NMR and ESR study” (Eur J Med Chem, 2009).

For one data set, the system named is THP-1. As to the kind of experiment: Membrane penetration of compound in human THP1 cells assessed as membrane binding. It counts as ADME, cell-based.
Data set [1] in a line: Solubility of compound in water. The settings on record: buffer. It counts as physicochemical.
A short description of data set [2]: Partition coefficient, log P of the compound. It counts as physicochemical. The settings on record: octanol/water.

`OCCCCCCNc1ccc2nc(-c3ccc(F)cc3)c(-c3ccncc3)n2c1`: the result with THP-1 was Active. Moreover, the solubility result in data set [1] is listed as “Soluble”. In addition, the logP – broadly, the decadic logarithm of the partition coefficient of the neutral form, usually between octanol and water – in data set [2] came out at 3.2.
On to `OCCNc1ccc2nc(-c3ccc(F)cc3)c(-c3ccncc3)n2c1`, for which the Activity entry with THP-1 is on record as “Not Active”. Further, in data set [1], the solubility result was “Insoluble”. Further, the logP in data set [2] was found to be 1.75.
On the same counts, the results for `OCCCCNc1ccc2nc(-c3ccc(F)cc3)c(-c3ccncc3)n2c1` are “Not Active”, “Insoluble” and 2.3.
